# Reference: patent US20260297060A1, “COMPOUNDS FOR THE DEGRADATION OF MUTANT BRAF” (C4 THERAPEUTICS, INC., priority 2023, published 2026)
# Where two headings read alike, the source gives them in different places.
# How the values were obtained:
# [1] = Pharmacokinetics after 21 days dosing in the efficacy study (plasma, tumor and brain concentrations; plasma AUC at steady state), Example 14; format: in vivo, female BALB/c nude mice; conditions: for Concentration in Brain / concentration at 24 h: 24 h; for Concentration in Brain: BQL: below the lower limit of quantitation; for concentration at 4 h / concentration at 24 h / concentration at 0.25 h / concentration at 0.5 h / concentration at 1 h / concentration at 2 h / concentration at 8 h / concentration at 10 h: mouse, po
# Procedure: Agents were tested in the A375 human melanoma xenografts. Compound 26 and Compound 141 were administered to BALB/c nude mice bearing A375 tumors from PG-DO and dosed via PO twice a day (BID) or third a day (TIP) or dosed P daily (QD) from PG-D. Dabrafenib was administered to BALB/c nude mice bearing A375 tumors from PG-D1 and dosed via P daily (QD). Compound 26 was dosed at 1.5 mg/kg (QD), 2 mg/kg (TID), 3 mg/kg (BID), 6 mg/kg (QD) and 10 mg/kg (BID) for 21 days. Compound 141 was dosed at 0.75 mg/kg (BID), 1 mg/kg (TID), 1.5 mg/kg (BID), 3 mg/kg (QD) and 5 mg/kg (BID) for 21 days. Dabrafenib was dosed at 100 mg/kg for 21 days. This study was non-GLP.
# The plasma samples were collected at predetermined time points for PK analysis. For non-termination plasma collection: the blood samples were collected into the 1.5 mL Eppendorf tubes containing 3 μL of 0.5 M EDTA-K2. And then the anticoagulant blood samples were centrifuged at 2,500 g at 4° C. for 15 minutes. For termination plasma collection: the mice was euthanized at predetermined time points post the treatment, the blood samples were collected into the 1.5 mL Eppendorf tubes containing 15 μL of 0.5 M EDTA-K2. And then the anticoagulant blood samples were centrifuged at 2,500 g at 4° C. for 15 minutes. The plasma samples were separated into 2 aliquots. The 1st was used for PK analysis, and the 2nd was served as backup.
# The tumor samples were collected at predetermined time points for PK and WB analysis. The tumor was dissected out and split into 3 parts. The 1st part was used for PK analysis, the 2nd part was used for WB analysis and the last one was used as backup for the study. The samples were transferred into pre-labeled tubes and quickly froze in liquid nitrogen within 2 minutes after dissection. The samples were stored at −80° C. before analysis.
# The brain samples were collected at predetermined time points for PK and potential WB analysis. The brain was dissected out and split into 3 parts (left brain, right brain upper and right brain lower), the left brain was used for PK, the right brain upper was used for WB and the last one was used as the backup for the study. The samples were transferred into pre-labeled tubes and quickly froze in liquid nitrogen within 2 minutes after dissection. The samples were stored at −80° C. before analysis.
# The harvested plasma and tumor samples were processed for pharmacokinetics analysis by LC-MS/MS with a concentration range of 1.00-1,000 ng/mL for dabrafenib in plasma and 0.0500-50 ng/mL in tumor and brain homogenate, 5.00-10,000 ng/mL for Compound 141 in plasma and 0.200~200 ng/ml in tumor and brain homogenate. 20.0~20,000 ng/mL for Compound 26 in plasma and 0.5~500 ng/mL for Compound 26 tumor and brain homogenate.
# Dabrafenib, Compound 26 and Compound 141 in female BALB/c nude mice plasma (K2-EDTA), tumor and brain homogenate were analyzed by LC-MS/MS (Triple Quad 6500+ Low Mass). Verapamil (5 ng/mL) in acetonitrile: methanol (V: V=95:5) was used as the internal standard for Dabrafenib, Compound 26 and Compound 141 in plasma. Verapamil (0.5 ng/mL) in acetonitrile: methanol (V: V=95:5) was used as the internal standard for Dabrafenib, Compound 26 and Compound 141 in tumor and brain homogenate.
# An aliquot of 10 μL unknown sample, calibration standard, quality control, dilute quality control, single blank and double blank samples were added to the 96-well plate. Each sample for Dabrafenib, Compound 26 and Compound 141 in plasma (except the double blank) was quenched with 200 μL IS respectively (double blank sample was quenched with 200 μL ACN: MeOH (V: V=95:5)); each sample for Dabrafenib, Compound 26 and Compound 141 in tumor and brain(except the double blank) was quenched with 100 μL IS respectively (double blank sample was quenched with 100 μL ACN: MeOH (V: V=95:5)); and then the mixture was vortex-mixed for 5 min at 800 rpm and centrifuged for 15 min at 3220 g (4000 rpm), 4° C. […]
# BRAF V600E = experiment: Pharmacodynamics of BRAF protein degradation in inoculated CNS tumors (Example 12); format: in vivo, human A375 CNS xenograft in mice; conditions: CNS tumor-bearing mice, after administration, versus encorafenib, FIG. 51
# Procedure: FIG. 51 is a plot showing the pharmacodynamics of BRAF protein degradation in the inoculated CNS tumors. […] The experiment was conducted as described in Example 12.
# [2] = plasma, 0.75 mg/kg p.o. BID x 21 days, mean ± SEM
# [3] = plasma, 0.75 mg/kg p.o. BID x 21 days, mean ± SEM, read-out: Concentration in Plasma
# [4] = plasma, 1 mg/kg p.o. TID x 21 days, mean ± SEM
# [5] = plasma, 1 mg/kg p.o. TID x 21 days, mean ± SEM, read-out: Concentration in Plasma
# [6] = plasma, 1.5 mg/kg p.o. BID x 21 days, mean ± SEM
# [7] = plasma, 1.5 mg/kg p.o. BID x 21 days, mean ± SEM, read-out: Concentration in Plasma
# [8] = plasma, 3 mg/kg p.o. QD x 21 days, mean ± SEM
# [9] = plasma, 3 mg/kg p.o. QD x 21 days, mean ± SEM, read-out: Concentration in Plasma
# [10] = plasma, 5 mg/kg p.o. BID x 21 days, mean ± SEM
# [11] = plasma, 5 mg/kg p.o. BID x 21 days, mean ± SEM, read-out: Concentration in Plasma
# [12] = tumor, 1 mg/kg p.o. TID x 21 days, mean ± SEM, read-out: Concentration in Tumor
# [13] = tumor, 1.5 mg/kg p.o. BID x 21 days, mean ± SEM, read-out: Concentration in Tumor
compound,measurement,setting,value
"CCN(C)S(=O)(=O)Nc1ccc(F)c(Oc2ccc3ncn(C4CC5(CCN(C6CC7(C6)CN(c6cc8c(cc6F)c(N6CCC(=O)NC6=O)nn8C)C7)CC5)C4)c(=O)c3c2)c1C#N (stereo not shown) [Compound 141, 6-[2-cyano-3-[[ethyl(methyl)sulfamoyl]amino]-6-fluoro-phenoxy]-3-[7-[2-[3-(2,4-dioxohexahydropyrimidin-1-yl)-5-fluoro-1-methyl-indazol-6-yl]-2-azaspiro[3.3]heptan-6-yl]-7-azaspiro[3.5]nonan-2-yl]-4-oxo-quinazoline]",Concentration in Brain,[1]; 0.75 mg/kg p.o. BID x 21 days,BQL
same,Concentration in Brain,[1]; 1 mg/kg p.o. TID x 21 days,BQL
same,Concentration in Brain,[1]; 1.5 mg/kg p.o. BID x 21 days,BQL
same,Concentration in Brain,[1]; 3 mg/kg p.o. QD x 21 days,BQL
same,concentration at 4 h,"[1]; brain, 0.75 mg/kg p.o. BID x 21 days, mean ± SEM, read-out: Concentration in Brain",10.7 ± 2.04 ng/g
same,concentration at 4 h,"[1]; brain, 1 mg/kg p.o. TID x 21 days, mean ± SEM, read-out: Concentration in Brain",12.4 ± 2.79 ng/g
same,concentration at 4 h,"[1]; brain, 1.5 mg/kg p.o. BID x 21 days, mean ± SEM, read-out: Concentration in Brain",10.1 ± 1.79 ng/g
same,concentration at 4 h,"[1]; brain, 3 mg/kg p.o. QD x 21 days, mean ± SEM, read-out: Concentration in Brain",22.9 ± 2.7 ng/g
same,concentration at 4 h,"[1]; brain, 5 mg/kg p.o. BID x 21 days, mean ± SEM, read-out: Concentration in Brain",51.4 ± 21.7 ng/g
same,concentration at 24 h,"[1]; brain, 5 mg/kg p.o. BID x 21 days, read-out: Concentration in Brain",2.25 ng/g
same,concentration at 0.25 h,[1]; [2],369 ± 64.7 ng/mL
same,concentration at 0.5 h,[1]; [2],732 ± 139 ng/mL
same,concentration at 1 h,[1]; [2],1140 ± 226 ng/mL
same,concentration at 2 h,[1]; [2],1280 ± 277 ng/mL
same,concentration at 4 h,[1]; [3],663 ± 79 ng/mL
same,concentration at 8 h,[1]; [2],432 ± 45.3 ng/mL
same,concentration at 10 h,[1]; [2],343 ± 34.9 ng/mL
same,concentration at 24 h,[1]; [3],10.8 ± 2.44 ng/mL
same,concentration at 0.25 h,[1]; [4],950 ± 130 ng/mL
same,concentration at 0.5 h,[1]; [4],1750 ± 165 ng/mL
same,concentration at 1 h,[1]; [4],1930 ± 416 ng/mL
same,concentration at 2 h,[1]; [4],1760 ± 262 ng/mL
same,concentration at 4 h,[1]; [5],850 ± 185 ng/mL
same,concentration at 8 h,[1]; [4],780 ± 53.4 ng/mL
same,concentration at 10 h,[1]; [4],676 ± 42.5 ng/mL
same,concentration at 24 h,[1]; [5],33.7 ± 4.48 ng/mL
same,concentration at 0.25 h,[1]; [6],702 ± 91.7 ng/mL
same,concentration at 0.5 h,[1]; [6],1360 ± 270 ng/mL
same,concentration at 1 h,[1]; [6],1940 ± 211 ng/mL
same,concentration at 2 h,[1]; [6],2120 ± 241 ng/mL
same,concentration at 4 h,[1]; [7],950 ± 365 ng/mL
same,concentration at 8 h,[1]; [6],523 ± 19.7 ng/mL
same,concentration at 10 h,[1]; [6],328 ± 12.4 ng/mL
same,concentration at 24 h,[1]; [7],11.2 ± 2.61 ng/mL
same,concentration at 0.25 h,[1]; [8],1580 ± 247 ng/mL
same,concentration at 0.5 h,[1]; [8],2850 ± 361 ng/mL
same,concentration at 1 h,[1]; [8],5130 ± 799 ng/mL
same,concentration at 2 h,[1]; [8],5290 ± 555 ng/mL
same,concentration at 4 h,[1]; [9],2430 ± 222 ng/mL
same,concentration at 8 h,[1]; [8],869 ± 101 ng/mL
same,concentration at 10 h,[1]; [8],617 ± 41.7 ng/mL
same,concentration at 24 h,[1]; [9],12.2 ± 1.4 ng/mL
same,concentration at 0.25 h,[1]; [10],2930 ± 226 ng/mL
same,concentration at 0.5 h,[1]; [10],6300 ± 457 ng/mL
same,concentration at 1 h,[1]; [10],6340 ± 1160 ng/mL
same,concentration at 2 h,[1]; [10],6130 ± 1280 ng/mL
same,concentration at 4 h,[1]; [11],3730 ± 1140 ng/mL
same,concentration at 8 h,[1]; [10],3260 ± 243 ng/mL
same,concentration at 10 h,[1]; [10],2370 ± 37.1 ng/mL
same,concentration at 24 h,[1]; [11],38.9 ± 5.18 ng/mL
same,concentration at 4 h,"[1]; tumor, 0.75 mg/kg p.o. BID x 21 days, mean ± SEM, read-out: Concentration in Tumor",160 ± 24.9 ng/g
same,concentration at 24 h,"[1]; tumor, 0.75 mg/kg p.o. BID x 21 days, read-out: Concentration in Tumor",33 ng/g
same,concentration at 4 h,[1]; [12],390 ± 107 ng/g
same,concentration at 24 h,[1]; [12],14.3 ± 4.44 ng/g
same,concentration at 4 h,[1]; [13],317 ± 61.6 ng/g
same,concentration at 24 h,[1]; [13],6.7 ng/g
same,concentration at 4 h,"[1]; tumor, 3 mg/kg p.o. QD x 21 days, mean ± SEM, read-out: Concentration in Tumor",909 ± 165 ng/g
same,concentration at 24 h,"[1]; tumor, 3 mg/kg p.o. QD x 21 days, read-out: Concentration in Tumor",3.01 ng/g
same,concentration at 4 h,"[1]; tumor, 5 mg/kg p.o. BID x 21 days, mean ± SEM, read-out: Concentration in Tumor",1300 ± 471 ng/g
same,concentration at 24 h,"[1]; tumor, 5 mg/kg p.o. BID x 21 days, read-out: Concentration in Tumor",79.3 ng/g
same,BRAF V600E levels in the brain tumor compared with encorafenib,BRAF V600E,much lower
